# Measured values from patent publication US9546156B2, “N-bicyclic aryl,N'-pyrazolyl urea, thiourea, guanidine cyanoguanidine compounds as TrkA kinase inhibitors” (Array BioPharma Inc., priority 2012, dated 2017).
# Legend:
# Test in all cases: Off-target kinase profiling (KinaseProfiler)
# Assay type in all cases: biochemical
# Details in all cases: 10 μM, ATP near Km
# [1] = target: T1, AKT3 (Homo sapiens, UniProt Q9Y243)
# T1 construct: purchased Millipore, Inc. (KinaseProfiler service)
# How it was run: (§1)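 Off-target inhibition is captured as POC from a single 10 μM dose. Replicates: two, averaged. ATP was kept near Km kinase by kinase.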
# [2] = target: T2, AMPK(A1/B1/G1) (Homo sapiens, UniProt Q13131)
# T2 construct: purchased Millipore, Inc. (KinaseProfiler service)
# How it was run: as §1
# [3] = target: T3, BrSK2 (Homo sapiens, UniProt Q8IWQ3)
# T3 construct: purchased Millipore, Inc. (KinaseProfiler service)
# How it was run: as §1
# [4] = target: T4, CDK1/cyclinB (Homo sapiens, UniProt P06493)
# T4 construct: purchased Millipore, Inc. (KinaseProfiler service)
# How it was run: as §1
# [5] = target: T5, CDK5/p25 (Homo sapiens, UniProt Q00535)
# T5 construct: purchased Millipore, Inc. (KinaseProfiler service)
# How it was run: as §1
# [6] = system: CK1_y
# How it was run: as §1
# [7] = target: T6, CK1delta (Homo sapiens, UniProt P48730)
# T6 construct: purchased Millipore, Inc. (KinaseProfiler service)
# How it was run: as §1
# [8] = target: T7, CK1gamma2 (Homo sapiens, UniProt P78368)
# T7 construct: purchased Millipore, Inc. (KinaseProfiler service)
# How it was run: as §1
# [9] = target: T8, CSK (Homo sapiens, UniProt P41240)
# T8 construct: purchased Millipore, Inc. (KinaseProfiler service)
# How it was run: as §1
# [10] = target: T9, ERK1 (Homo sapiens, UniProt P27361)
# T9 construct: purchased Millipore, Inc. (KinaseProfiler service)
# How it was run: as §1
# [11] = target: T10, ERK2 (Homo sapiens, UniProt P28482)
# T10 construct: purchased Millipore, Inc. (KinaseProfiler service)
# How it was run: as §1
# [12] = target: T11, FGFR2 (Homo sapiens, UniProt P21802)
# T11 construct: purchased Millipore, Inc. (KinaseProfiler service)
# How it was run: as §1
# [13] = target: T12, GRK5 (Homo sapiens, UniProt P34947)
# T12 construct: purchased Millipore, Inc. (KinaseProfiler service)
# How it was run: as §1
# [14] = target: T13, GRK7 (Homo sapiens, UniProt Q8WTQ7)
# T13 construct: purchased Millipore, Inc. (KinaseProfiler service)
# How it was run: as §1
# [15] = target: T14, GSK3beta (Homo sapiens, UniProt P49841)
# T14 construct: purchased Millipore, Inc. (KinaseProfiler service)
# How it was run: as §1
# [16] = target: T15, LIMK1 (Homo sapiens, UniProt P53667)
# T15 construct: purchased Millipore, Inc. (KinaseProfiler service)
# How it was run: as §1
# [17] = target: T16, MAP3K5 (Homo sapiens, UniProt Q99683)
# T16 construct: purchased Millipore, Inc. (KinaseProfiler service)
# How it was run: as §1
# [18] = target: T17, MKK7beta (Homo sapiens, UniProt O14733)
# T17 construct: purchased Millipore, Inc. (KinaseProfiler service)
# How it was run: as §1
# [19] = target: T18, MLK1 (Homo sapiens, UniProt P80192)
# T18 construct: purchased Millipore, Inc. (KinaseProfiler service)
# How it was run: as §1
# [20] = target: T19, MSK1 (Homo sapiens, UniProt O75582)
# T19 construct: purchased Millipore, Inc. (KinaseProfiler service)
# How it was run: as §1
# [21] = target: T20, MST3 (Homo sapiens, UniProt Q9Y6E0)
# T20 construct: purchased Millipore, Inc. (KinaseProfiler service)
# How it was run: as §1
# [22] = target: T21, Mer (Homo sapiens, UniProt Q12866)
# T21 construct: purchased Millipore, Inc. (KinaseProfiler service)
# How it was run: as §1
# [23] = target: T22, PAK4 (Homo sapiens, UniProt O96013)
# T22 construct: purchased Millipore, Inc. (KinaseProfiler service)
# How it was run: as §1
# [24] = target: T23, PAK5 (Homo sapiens, UniProt Q9P286)
# T23 construct: purchased Millipore, Inc. (KinaseProfiler service)
# How it was run: as §1
# [25] = target: T24, PASK (Homo sapiens, UniProt Q96RG2)
# T24 construct: purchased Millipore, Inc. (KinaseProfiler service)
# How it was run: as §1
# [26] = target: T25, PDGFRalpha (Homo sapiens, UniProt P16234)
# T25 construct: purchased Millipore, Inc. (KinaseProfiler service)
# How it was run: as §1
# [27] = target: T26, PKCdelta (Homo sapiens, UniProt Q05655)
# T26 construct: purchased Millipore, Inc. (KinaseProfiler service)
# How it was run: as §1
# [28] = target: T27, PRKG1alpha (Homo sapiens, UniProt Q13976)
# T27 construct: purchased Millipore, Inc. (KinaseProfiler service)
# How it was run: as §1
# [29] = target: T28, PRKG1beta (Homo sapiens, UniProt Q13976)
# T28 construct: purchased Millipore, Inc. (KinaseProfiler service)
# How it was run: as §1
# [30] = target: T29, PTK5 (Homo sapiens, UniProt P42685)
# T29 construct: purchased Millipore, Inc. (KinaseProfiler service)
# How it was run: as §1
# [31] = target: T30, PhKgamma2 (Homo sapiens, UniProt P15735)
# T30 construct: purchased Millipore, Inc. (KinaseProfiler service)
# How it was run: as §1
# [32] = target: T31, Plk2 (Homo sapiens, UniProt Q9NYY3)
# T31 construct: purchased Millipore, Inc. (KinaseProfiler service)
# How it was run: as §1
# [33] = target: T32, ROCK-II (Homo sapiens, UniProt O75116)
# T32 construct: purchased Millipore, Inc. (KinaseProfiler service)
# How it was run: as §1
# [34] = target: T33, SGK1 (Homo sapiens, UniProt O00141, S422D)
# T33 construct: purchased Millipore, Inc. (KinaseProfiler service)
# How it was run: as §1
# [35] = target: T34, SRPK2 (Homo sapiens, UniProt P78362)
# T34 construct: purchased Millipore, Inc. (KinaseProfiler service)
# How it was run: as §1
# [36] = target: T35, TSSK2 (Homo sapiens, UniProt Q96PF2)
# T35 construct: purchased Millipore, Inc. (KinaseProfiler service)
# How it was run: as §1
# [37] = target: T36, TrkB (Homo sapiens, UniProt Q16620)
# T36 construct: purchased Millipore, Inc. (KinaseProfiler service)
# How it was run: as §1
# [38] = target: T37, VRK2 (Homo sapiens, UniProt Q86Y07)
# T37 construct: purchased Millipore, Inc. (KinaseProfiler service)
# How it was run: as §1
# [39] = target: T38, WNK2 (Homo sapiens, UniProt Q9Y3S1)
# T38 construct: purchased Millipore, Inc. (KinaseProfiler service)
# How it was run: as §1
# [40] = target: T39, p38alpha (Homo sapiens, UniProt Q16539)
# T39 construct: purchased Millipore, Inc. (KinaseProfiler service)
# How it was run: as §1
# [41] = target: T40, p38gamma (Homo sapiens, UniProt P53778)
# T40 construct: purchased Millipore, Inc. (KinaseProfiler service)
# How it was run: as §1
# T29 sequence (P42685 whole entry): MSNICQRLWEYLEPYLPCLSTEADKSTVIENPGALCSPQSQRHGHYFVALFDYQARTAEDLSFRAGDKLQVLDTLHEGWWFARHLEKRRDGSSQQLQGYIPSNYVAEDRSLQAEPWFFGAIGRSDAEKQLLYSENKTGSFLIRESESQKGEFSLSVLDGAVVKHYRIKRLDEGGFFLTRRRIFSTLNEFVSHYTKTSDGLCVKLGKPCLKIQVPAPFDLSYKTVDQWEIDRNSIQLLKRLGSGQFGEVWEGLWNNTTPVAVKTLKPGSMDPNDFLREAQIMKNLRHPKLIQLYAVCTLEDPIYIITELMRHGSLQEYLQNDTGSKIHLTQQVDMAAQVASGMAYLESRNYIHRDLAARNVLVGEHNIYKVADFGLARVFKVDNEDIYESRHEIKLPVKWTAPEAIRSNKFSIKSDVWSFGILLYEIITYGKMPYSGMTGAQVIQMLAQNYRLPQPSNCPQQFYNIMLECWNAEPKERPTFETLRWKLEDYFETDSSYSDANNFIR
# T20 sequence (Q9Y6E0 whole entry): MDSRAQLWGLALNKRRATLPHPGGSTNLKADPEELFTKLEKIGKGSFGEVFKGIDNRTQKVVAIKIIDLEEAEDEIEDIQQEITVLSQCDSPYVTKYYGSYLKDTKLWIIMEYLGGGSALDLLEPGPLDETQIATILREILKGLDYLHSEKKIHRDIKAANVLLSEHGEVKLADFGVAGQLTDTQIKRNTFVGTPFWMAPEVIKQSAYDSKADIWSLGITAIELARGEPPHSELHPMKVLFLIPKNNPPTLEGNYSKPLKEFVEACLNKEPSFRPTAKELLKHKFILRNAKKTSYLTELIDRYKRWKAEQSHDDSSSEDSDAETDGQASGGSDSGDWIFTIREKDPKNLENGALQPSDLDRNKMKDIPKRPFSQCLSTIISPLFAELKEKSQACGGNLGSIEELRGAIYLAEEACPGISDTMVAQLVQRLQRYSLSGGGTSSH
# T24 sequence (Q96RG2 whole entry): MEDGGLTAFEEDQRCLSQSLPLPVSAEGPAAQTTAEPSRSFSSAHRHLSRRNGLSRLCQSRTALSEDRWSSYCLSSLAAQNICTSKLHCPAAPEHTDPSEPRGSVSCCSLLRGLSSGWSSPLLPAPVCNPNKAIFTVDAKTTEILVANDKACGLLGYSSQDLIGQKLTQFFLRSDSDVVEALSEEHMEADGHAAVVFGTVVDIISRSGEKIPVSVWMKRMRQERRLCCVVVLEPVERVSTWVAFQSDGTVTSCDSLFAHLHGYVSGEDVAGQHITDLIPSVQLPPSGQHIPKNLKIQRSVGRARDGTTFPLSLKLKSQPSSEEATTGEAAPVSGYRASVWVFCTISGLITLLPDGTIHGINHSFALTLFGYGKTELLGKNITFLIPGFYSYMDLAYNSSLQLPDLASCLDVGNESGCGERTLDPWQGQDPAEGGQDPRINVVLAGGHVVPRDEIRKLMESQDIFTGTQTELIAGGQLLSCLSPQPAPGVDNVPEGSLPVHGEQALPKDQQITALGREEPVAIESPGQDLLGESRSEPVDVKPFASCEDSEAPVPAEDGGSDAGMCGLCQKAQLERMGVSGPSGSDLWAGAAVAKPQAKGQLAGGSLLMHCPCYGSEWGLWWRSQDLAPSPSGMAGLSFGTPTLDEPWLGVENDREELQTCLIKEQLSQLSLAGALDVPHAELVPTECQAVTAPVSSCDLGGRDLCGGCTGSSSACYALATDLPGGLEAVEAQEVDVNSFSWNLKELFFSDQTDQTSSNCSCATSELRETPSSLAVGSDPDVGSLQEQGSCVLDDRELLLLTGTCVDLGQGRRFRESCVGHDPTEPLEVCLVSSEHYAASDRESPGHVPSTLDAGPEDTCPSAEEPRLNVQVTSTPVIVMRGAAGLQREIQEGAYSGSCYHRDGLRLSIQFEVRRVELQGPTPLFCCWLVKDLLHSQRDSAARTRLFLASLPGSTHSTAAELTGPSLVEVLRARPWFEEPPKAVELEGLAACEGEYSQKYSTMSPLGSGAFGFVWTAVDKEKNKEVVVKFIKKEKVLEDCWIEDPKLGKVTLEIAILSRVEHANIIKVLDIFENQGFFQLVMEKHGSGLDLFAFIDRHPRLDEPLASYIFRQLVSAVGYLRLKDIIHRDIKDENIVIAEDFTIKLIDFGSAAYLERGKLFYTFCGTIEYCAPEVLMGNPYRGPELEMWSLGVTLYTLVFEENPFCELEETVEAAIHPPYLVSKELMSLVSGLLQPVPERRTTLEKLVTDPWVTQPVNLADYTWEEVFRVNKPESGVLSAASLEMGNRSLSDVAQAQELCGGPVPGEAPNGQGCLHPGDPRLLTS
# T12 sequence (P34947 whole entry): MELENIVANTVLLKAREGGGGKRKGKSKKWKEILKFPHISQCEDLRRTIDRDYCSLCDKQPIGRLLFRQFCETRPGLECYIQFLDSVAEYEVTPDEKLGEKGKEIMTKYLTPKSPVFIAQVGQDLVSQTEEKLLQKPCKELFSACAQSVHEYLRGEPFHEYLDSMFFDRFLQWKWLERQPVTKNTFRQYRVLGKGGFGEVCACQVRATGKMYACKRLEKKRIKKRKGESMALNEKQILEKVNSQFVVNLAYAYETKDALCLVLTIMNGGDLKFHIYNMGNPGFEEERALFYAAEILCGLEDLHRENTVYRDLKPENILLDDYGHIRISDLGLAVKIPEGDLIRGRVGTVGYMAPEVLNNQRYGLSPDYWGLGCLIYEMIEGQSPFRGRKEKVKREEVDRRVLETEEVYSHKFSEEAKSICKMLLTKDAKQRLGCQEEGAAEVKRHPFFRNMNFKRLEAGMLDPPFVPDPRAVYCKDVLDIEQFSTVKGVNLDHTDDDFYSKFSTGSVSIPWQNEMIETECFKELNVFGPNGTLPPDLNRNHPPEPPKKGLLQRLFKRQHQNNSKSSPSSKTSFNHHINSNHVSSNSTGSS
# T19 sequence (O75582 whole entry): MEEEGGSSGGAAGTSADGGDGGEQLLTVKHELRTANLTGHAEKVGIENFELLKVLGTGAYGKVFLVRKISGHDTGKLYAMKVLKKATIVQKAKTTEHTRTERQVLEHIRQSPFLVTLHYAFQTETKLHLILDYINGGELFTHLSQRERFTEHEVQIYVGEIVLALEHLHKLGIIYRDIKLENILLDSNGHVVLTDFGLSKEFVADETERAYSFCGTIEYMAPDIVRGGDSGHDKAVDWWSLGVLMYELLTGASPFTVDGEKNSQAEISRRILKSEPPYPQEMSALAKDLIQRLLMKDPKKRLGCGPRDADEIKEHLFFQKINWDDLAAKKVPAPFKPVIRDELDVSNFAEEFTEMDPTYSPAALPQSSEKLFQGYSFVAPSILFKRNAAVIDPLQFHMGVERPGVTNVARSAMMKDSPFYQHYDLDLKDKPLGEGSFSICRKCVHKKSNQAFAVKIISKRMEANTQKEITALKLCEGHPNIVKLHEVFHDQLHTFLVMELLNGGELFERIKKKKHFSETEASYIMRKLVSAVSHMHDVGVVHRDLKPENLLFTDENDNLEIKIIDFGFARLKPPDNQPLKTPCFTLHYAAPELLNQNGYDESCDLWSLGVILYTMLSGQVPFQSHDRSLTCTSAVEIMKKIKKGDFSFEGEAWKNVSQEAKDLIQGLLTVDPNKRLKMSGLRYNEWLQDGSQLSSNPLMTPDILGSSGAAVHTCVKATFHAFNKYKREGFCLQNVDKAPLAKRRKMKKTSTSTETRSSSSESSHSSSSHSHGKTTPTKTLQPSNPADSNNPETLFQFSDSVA
# T9 sequence (P27361 whole entry): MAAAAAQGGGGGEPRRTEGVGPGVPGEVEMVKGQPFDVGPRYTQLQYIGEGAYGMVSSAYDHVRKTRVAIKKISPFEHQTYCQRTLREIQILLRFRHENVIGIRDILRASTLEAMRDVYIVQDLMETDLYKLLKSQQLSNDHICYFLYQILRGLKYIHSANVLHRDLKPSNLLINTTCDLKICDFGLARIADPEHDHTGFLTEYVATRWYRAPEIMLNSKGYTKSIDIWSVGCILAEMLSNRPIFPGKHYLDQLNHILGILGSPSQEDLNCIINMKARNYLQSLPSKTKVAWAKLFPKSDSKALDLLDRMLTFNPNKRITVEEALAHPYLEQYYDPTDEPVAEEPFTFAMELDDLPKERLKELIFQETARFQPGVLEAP
# T7 sequence (P78368 whole entry): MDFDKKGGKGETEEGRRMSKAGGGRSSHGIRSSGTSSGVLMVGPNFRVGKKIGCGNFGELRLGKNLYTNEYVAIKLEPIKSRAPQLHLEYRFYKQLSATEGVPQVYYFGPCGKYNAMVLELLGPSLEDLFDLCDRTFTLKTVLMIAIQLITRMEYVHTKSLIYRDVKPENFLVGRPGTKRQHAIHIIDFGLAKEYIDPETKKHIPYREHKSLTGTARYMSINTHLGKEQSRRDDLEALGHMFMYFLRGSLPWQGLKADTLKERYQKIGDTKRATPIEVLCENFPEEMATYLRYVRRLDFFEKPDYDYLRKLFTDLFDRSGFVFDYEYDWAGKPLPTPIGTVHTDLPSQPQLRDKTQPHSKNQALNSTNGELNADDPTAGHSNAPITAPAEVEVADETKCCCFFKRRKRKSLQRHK
# T22 sequence (O96013 whole entry): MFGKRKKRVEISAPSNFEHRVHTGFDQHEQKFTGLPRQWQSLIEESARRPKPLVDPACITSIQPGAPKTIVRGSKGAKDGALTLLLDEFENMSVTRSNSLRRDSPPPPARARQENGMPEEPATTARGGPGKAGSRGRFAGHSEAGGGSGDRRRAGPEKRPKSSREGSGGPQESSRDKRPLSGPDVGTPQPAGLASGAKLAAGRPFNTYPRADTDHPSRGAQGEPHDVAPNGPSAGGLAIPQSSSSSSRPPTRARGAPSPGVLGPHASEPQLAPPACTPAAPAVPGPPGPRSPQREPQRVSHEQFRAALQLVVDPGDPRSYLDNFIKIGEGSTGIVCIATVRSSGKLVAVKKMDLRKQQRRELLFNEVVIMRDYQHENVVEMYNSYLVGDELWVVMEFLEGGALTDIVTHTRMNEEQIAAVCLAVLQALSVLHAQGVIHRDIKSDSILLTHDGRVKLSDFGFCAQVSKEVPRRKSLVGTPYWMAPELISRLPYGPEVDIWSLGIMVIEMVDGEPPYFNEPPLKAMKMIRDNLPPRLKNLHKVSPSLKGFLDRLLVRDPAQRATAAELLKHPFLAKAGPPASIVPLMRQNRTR
compound,measurement,setting,value
"COCc1ccc2cccc(NC(=O)Nc3c(C)c(-c4cnn(C)c4)nn3-c3ccccc3)c2c1 [Example 16, 1-(1′,4-dimethyl-1-phenyl-1H,1′H-[3,4′-bipyrazol]-5-yl)-3-(7-(methoxymethyl)naphthalen-1-yl)urea]",Avg POC,[1],130.5 POC
same,Avg POC,[2],134.5 POC
same,Avg POC,[3],143 POC
same,Avg POC,[4],117.5 POC
same,Avg POC,[5],110.5 POC
same,Avg POC,[6],105 POC
same,Avg POC,[7],127.5 POC
same,Avg POC,[8],124.5 POC
same,Avg POC,[9],132 POC
same,Avg POC,[10],110 POC
same,Avg POC,[11],116.5 POC
same,Avg POC,[12],110 POC
same,Avg POC,[13],108 POC
same,Avg POC,[14],97 POC
same,Avg POC,[15],212 POC
same,Avg POC,[16],105.5 POC
same,Avg POC,[17],112.5 POC
same,Avg POC,[18],115.5 POC
same,Avg POC,[19],106 POC
same,Avg POC,[20],132 POC
same,Avg POC,[21],135 POC
same,Avg POC,[22],116 POC
same,Avg POC,[23],112.5 POC
same,Avg POC,[24],122.5 POC
same,Avg POC,[25],164.5 POC
same,Avg POC,[26],132 POC
same,Avg POC,[27],111.5 POC
same,Avg POC,[28],109.5 POC
same,Avg POC,[29],119 POC
same,Avg POC,[30],118.5 POC
same,Avg POC,[31],118 POC
same,Avg POC,[32],104.5 POC
same,Avg POC,[33],105 POC
same,Avg POC,[34],169.5 POC
same,Avg POC,[35],105.5 POC
same,Avg POC,[36],134 POC
same,Avg POC,[37],9 POC
same,Avg POC,[38],110 POC
same,Avg POC,[39],122.5 POC
same,Avg POC,[40],117 POC
same,Avg POC,[41],116 POC
